For two compounds, IC50 and melting point results are on record in patent US7034019B2, “Prodrugs of HIV replication inhibiting pyrimidines” (Janssen Pharmaceutica N.V., priority 2000, dated 2006).

Data set [1] concerns HIV. Kind of data set: anti-HIV activity in MT-4 cells (MTT, HIV-induced cytopathic effect), prior to incubation. It is filed as cell-based. The conditions noted are these: Human immunodeficiency virus 1, MT4; prior to incubation in subcellular liver fractions; HIV-infected MT-4 cells; read-out: IC50 before. The method, then: (§1) The metabolism of the present compounds was studied in subcellular liver fractions (1200×g) of rat, dog or human. The compounds were incubated at a final […] concentration of 30 μM; incubations were performed up to 120 minutes at a final protein concentration equivalent to 1 mg/ml microsomal proteins. Reactions were stopped by the addition of an equal volume (2 ml) of […]. Samples were stored at ≦−18° C. until analysis. […] Table 2 lists IC50 values prior to and after incubation in subcellular liver fractions.
(§2) A rapid, sensitive and automated assay procedure was used for the in vitro evaluation of anti-HIV agents. […] The viability of both HIV- and mock-infected cells was assessed spectrophotometrically via the in situ reduction of 3-(4,5-dimethylthiazol-2-yl)-2,5-diphenyltetrazolium bromide (MTT). […] The percent protection achieved by the compound in HIV-infected cells was calculated by the following formula:
(§3) [formula] whereby (ODT)HIV is the optical density measured with a given concentration of the test compound in HIV-infected cells; (ODC)HIV is the optical density measured for the control untreated HIV-infected cells; (ODC)MOCK is the optical density measured for the control untreated mock-infected cells; all optical density values were determined at 540 nm. […]

Data set [2] deals with HIV. Kind of data set: anti-HIV activity (MT-4/MTT) of incubates after incubation in rat subcellular liver fractions. It is filed as cell-based. The settings on record: Human immunodeficiency virus 1, MT4, 2 h; after incubation in rat subcellular liver fraction, 120 minutes; MT-4 cells. The method, then:
as §1, §2, §3

The test system of data set [3] is HIV. Kind of data set: anti-HIV activity (MT-4/MTT) of incubates after incubation in dog subcellular liver fractions. The conditions noted are these: Human immunodeficiency virus 1, MT4, 2 h; after incubation in dog subcellular liver fraction, 120 minutes; MT-4 cells. It is filed as cell-based. How it is done:
as §1, §2, §3

For data set [4], the system named is HIV. Kind of data set: anti-HIV activity (MT-4/MTT) of incubates after incubation in human subcellular liver fractions. It is filed as cell-based. The settings on record: after incubation in human subcellular liver fraction, MT-4 cells. The method, then:
as §1, §2, §3

In the case of `CCOCN(c1ccc(C#N)cc1)c1ncc(Br)c(Oc2c(C)cc(C#N)cc2C)n1` [Compound 1], the melting point lay in the range of 181 to 182 °C. Besides, in data set [1], the IC50 is more than 1000 nM. The same compound gave an IC50 in data set [2] of 175 nM. The same compound showed an IC50 in data set [3] of 138 nM. For the same compound, it took 293 nM to reach half-maximal inhibition in data set [4] (Human immunodeficiency virus 1, MT4, 0.5 h, 30 minutes) (IC50). This compound also gave an IC50 in data set [4] (Human immunodeficiency virus 1, MT4, 2 h, 120 minutes) of 165 nM.

In turn, `Cc1cc(C#N)cc(C)c1Oc1nc(N(COCCO)c2ccc(C#N)cc2)ncc1Br` [Compound 3] came in with a melting point of 199 to 200 °C. In addition, in data set [1], the IC50 was more than 1000 nM. Besides, the IC50 in data set [3] was found to be 809 nM.
